Assay results published in patent publication EP4772500A1, “NOVEL ISOXAZOLE COMPOUND AS TM4SF5-SPECIFIC INHIBITOR AND USE THEREOF” (Seoul National University R&DB Foundation, priority 2023, dated 2025).

System: SNU761-TM4SF5
Assay: Western blotting of SLAMF7 expression, TM4SF5-expressing SNU761 cells
Type: cell-based, human
Conditions: for expression level of SLAMF7 (WCL): whole-cell lysates, 24 hours (FIG. 15e-f)
Method: Cell extracts were obtained from cells grown to a density of 70-80% without any treatment, or from cells treated with vehicle DMSO or drugs at the given concentrations for 24 hours. For the extract of hepatocytes or liver cancer cells, a lysis buffer (150 mM NaCl, 1% NP-40, 50 mM Tris-HCl, 0.25% sodium deoxycholate, pH 7.4) including a protease inhibitor cocktail (GenDEPOT) was used. In addition, after washing animal liver tissue twice with PBS, SDS, Na3VO4, and protease inhibitor cocktails (GenDEPOT) were added to a lysis buffer [50 mM Tris-HCl, pH 7.4, 1% NP40, 0.25% sodium deoxycholate, 150 mM NaCl, 1 mM EDTA (based on 500 ml)], followed by treatment at 4°C for 15 minutes. After centrifugation at 13,000 rpm at 4°C for 30 minutes, only the supernatant was transferred to a new microcentrifuge tube. After quantification using BCA reagent (Thermo Scientific), a 4 × sample buffer [100% glycerol 4 ml, Tris-HCl, pH 6.8, 2.4 ml, SDS 0.8 g, Bromophenol blue 4 mg, betamercaptoethanol 0.4 ml, H2O 3.1 ml (based on 10 ml)] was added, followed by boiling at 100°C for 5 minutes. After performing SDS-PAGE electrophoresis with the above samples and transferring them to Nitrocellulose Membranes Protran™ nitrocellulose membranes (Whatman), pre-treatment was performed with 5% skim milk for 1 hour. After pre-treatment, primary antibodies of p-FAK(Y861) (SC-16663), p-FAK(Y577) (SC-16665), c-Src (SC-8056), STAT3 (SC-8019), p-AKT 1/2/3(S473) (SC-7985), STATS (SC-835), Laminin γ2 (SC-393225), COL1A1 (SC-28657), CCL5(RANTES) (SC-514019) CCL20(MIP-3α) (SC-517441), SIRT1 (SC-74465), ChREBP (SC-515922), SREBP1 (SC-366513), DGAT1 (SC-271934), DGAT2 (SC-293211), MICA/B (SC-137242), SLAMF7 (SC-390840), α-tublin (SC-5286), β-actin (SC-47778), FUCA (SC-365496) (the above from Santa Cruz Biotech, USA), p-FAK(Y397) (cat # 611723), FAK (cat # 610088), p27 (cat # 610242) (the above from BD Transduction, USA), p-FAK(Y925) (#3284) p-c-Src(Y416) (#2101), p-STAT3(Y705) (#9145), p70S6K1 (#9202), p-p70S6K1(T389) (#9205), p-STAT5(Y694) (#9314), ACC (#3676), FASN (#3189), CPT1A (#12252), p-ACC(S79) (#11818), HA (#3724), PD-L1 (#13684), PD-1 (#86163), p-ERK1/2(T202/Y204) (#9101s), ERK1/2 (#9102s) (the above from Cell Signaling Tech., USA), pS10p27(S10) (ab62364), human SLAMF6 (ab224201), TIGIT (ab233404), CD34 (ab81289) (the above from Abcam, UK), mouse SLAMF6 (PA5-87823), NKG2D (PA5-102038) (the above from Thermofisher, USA), α-SMA (Sigma Aldrich, A5228), CCL2 (Invitrogen, MA5-17040), and CD155(PVR) (Biolegend, 337601), HA (Biolegend, USA), Strep-HRP(horse-radish peroxidase), StrepMAB-HRP (IBA, USA), AFP (FineTest, FNab00203) were reacted at 4°C for 15 hours. The next day, secondary antibodies were reacted, and development was performed on X-ray film using ECL (Pierce, USA). […]
After 24 hours, vehicle DMSO, drug ST-1-025, or ST-5-002 was treated at the given concentrations. […] (f) After treating NK92-EV or NK92-TM4SF5 cells with DMSO or drugs ST-2-001 (1 nM), ST-3-005 (10 nM or 1 µM), ST-5-001, or ST-5-002 (100 nM or 1 µM) for 24 hours, the expression of SLAMF7 expressed on the cell surface was analyzed through immunostaining using flow cytometry. The expression level of SLAMF7 was confirmed by adding a SLAMF7 antibody to bind with SLAMF7 and then measuring the fluorescence linked to the SLAMF7 antibody using flow cytometry. […]

COc1cccc(-c2cc(-c3ccc(NC(C)=O)cc3)no2)c1 [ST-3-001, N-(4-(5-(3-methoxyphenyl)isoxazole-3-yl)phenyl)acetamide]
expression level of SLAMF7 (WCL): did not show a recovery

Cc1ccc(C(=O)Nc2ccc(-c3cc(-c4ccc(O)cc4)no3)cc2)cc1 [ST-5-002, N-(4-(3-(4-hydroxyphenyl)isoxazole-5-yl)phenyl)-4-methylbenzamide]
SLAMF7 expression level (SNU761-TM4SF5 (FIG. 13d)): less lowered or remained high
SLAMF7 expression decreased due to TM4SF5 (SNU761 with FLAG-SLAMF7 and HA-TM4SF5, given concentrations, 24 hours (FIG. 15d)): showed a pattern of recovery
expression level of SLAMF7 (WCL): increasing again
